In patent US20220331301A1, “CYSTIC FIBROSIS TRANSMEMBRANE CONDUCTANCE REGULATOR MODULATORS FOR TREATING AUTOSOMAL RESESSIVE POLYCYSTIC KIDNEY DISEASE” (The Johns Hopkins University, priority 2021, published 2022):
Entries after “also recorded” stand apart in the source; their conditions may differ.

What was measured:
HSP27, 70, 90 and Aha1 = experiment: Western blot of chaperone expression in cholangiocytes; assay type: cell-based, mice; details: Pkhd1del4/del4 cholangiocytes
Experimental: FIG. 9A, FIG. 9B, FIG. 9C, FIG. 9D and FIG. 9E show chaperone expression is altered Pkhd1del4/del4 cholangiocytes. (FIG. 9A) Representative Western blot images of HSP27, 70, 90 and Aha1 in WT and Pkhd1del4/del4 cholangiocytes treated with VX-809 as described in previous figures. (FIG. 9B, FIG. 9C, FIG. 9D and FIG. 9E) Columns represent averages±standard errors of Hsp 27, Aha1, HSP70 and HSP90 expression. Data were analyzed by non-parametric t-test. n=4 for each treated and control groups. **P. Please note the large decrease in Hsp27 and increases in Aha1, HSP70 and Hsp 90 in Pkhd1del4/del4 cholangiocytes compared to WT.
We have previously shown that CFTR-based correctors rescue ΔF508-CFTR by altering the proteostatic network of ER quality control proteins (HSPs) involved in its degradation. Lopes-Pacheco et al., 2015. […] To continue this line of investigation, we measured the steady-state levels of HSPs in Pkhd1del4/del4 cholangiocytes (FIG. 9). In the mutant cholangiocytes, HSP27 was reduced by half whereas, HSP70 was increased by 8 fold, HSP90 was by 2-fold and Aha1 by 2.5 fold.

PLD liver cells = experiment: Fura-2 Ca2+ release in PLD human liver cell lines; assay type: cell-based; details: VX-809 (10 μM) for 16 hours
Experimental: FIG. 17A-17F show Ca^2+ release in PLD human liver cell lines treated with VX-809. Intracellular Ca^2+ (F340/F380) levels were measured by ratiometric Fura-2 AM analysis of WT and PLD liver cells treated with VX-809 (10 μM) for 16 hours. FIG. 7A FIG. 7B show representative traces of ER Ca^2+ release in response to thapsigargin (4 μM) in WT and PLD liver cells treated with VX-809. FIG. 7C and FIG. 7D show resting Ca^2+ levels. FIG. 7E and FIG. 7F show the average amplitude of Ca^2+ release in response to thapsigargin. Amplitude was measured as the […] of the signal base to peak Δf/f. Significance between the two groups was analyzed using Student's t-test, n=5-6. ****P<0.0001.
The cells were loaded with the cell-permeant acetoxymethyl (AM) ester of the calcium indicator fura-2 (fura-2/AM) at 37° C. for 90 min. Measurements were made on a Zeiss inverted microscope equipped with a Sutter Lambda 10-2 controller and filter wheel assembly. A Zeiss FluorArc mercury lamp was used to excite the cells at 340 and 380 nm, and the emission response was measured at 510 nm. Cell fluorescence was measured in response to excitation for 1000 ms at 340 nm and 200 ms at 380 nm once every 4 s. Image acquisition, image analysis, and filter wheel control were performed with IPLab software (see Yanda et al., 2019b). […]

[1] = test system: Pkhd1^del4/del4 cholangiocytes; experiment: Cyst growth of cholangiocytes on matrigel (3D culture); assay type: cell-based, mice; details: for cyst growth / cyst area: 10 μM continuous, cysts induced with Forskolin (10 μM)
Experimental: (§1) Note that the cysts treated with forskolin (for) grew larger. […] Note that the cysts treated with forskolin (for) grew larger. […] FIG. 3C for 1 wk. […] Cysts were induced with Forskolin (10 μM) for 24 hours prior to study. Columns represent means±standard error (SEM). **P<0.01 ****P<0.0001 (for all graphs). Statistical analysis was performed using an unpaired two-tailed Student's t-test;
as §1, with “4C” for “3C”
But cysts do develop from the Pkhd1del4/del4 cholangiocytes. Cyst growth is accelerated by forskolin (for). […] Yanda et al., 2018. The dosage of VX-809 injected was lower than the human pediatric dose, which is 500 mg of Lumacaftor per day; the adult dose is 800 mg/day.
(Methods and cells provided by the Yale O'Brian Center) To create the cholangiocyte cultures PKhd1del/4/del4, Garcia-Gonzalez et al., 2007, animals were crossed with mice transgenic for the Sv40 large T Antigen (strain name SV40 T-antigen JAX strain #002233). Segments of intrahepatic bile ducts were microdissected from livers perfused via the portal vein with molten agarose containing toluidine blue to mark the veins. The liver parenchyma was stripped until the biliary tree was identified and the bile duct units were seeded onto rat type I collagen coated plates. Cells were cultured under non-permissive conditions in the following medium: DMEM/F12 with 5% fetal bovine serum, 10 μL/mL insulin-transferrin selenium, 3.4 μg/mL triiodothyronine, 50,000 U penicillin/streptomycin under humidified conditions at 37° C. in 5% CO2. After one week, the cells were cultured under permissive conditions in the presence of 10 U of interferon-γ at 33° C. in 5% CO2. When confluent, cells were passaged by digesting the collagen slab below the cells (60 min; 37° C.; DMEM/F12 with 2 mg/mL dispase and 1 mg/mL collagenase type 11), then washed twice in PBS and plated onto collagen coated support systems. Clonal cell lines were generated by single cell isolation. Cells were differentiated for 10 days at 37° C. without interferon-γ for experimental use.

In the case of lumacaftor [VX-809], the Aha1 level (HSP27, 70, 90 and Aha1) is reported as “reduced the levels; also recorded: correction toward WT values”, the HSP70 level (HSP27, 70, 90 and Aha1) is reported as “reduced the levels; also recorded: correction toward WT values” and the HSP90 level (HSP27, 70, 90 and Aha1) is reported as “reduced the levels; also recorded: correction toward WT values”. The “resting Ca^2+” value (PLD liver cells) was “not affected”, the “thapsigargin-induced ER Ca^2+ release” value (PLD liver cells; thapsigargin (4 μM)) was “significantly lowered” and the “cyst growth in 3D culture” value ([1]; Pkhd1del4/del4 cholangiocytes, time not stated) was “reduces growth; also recorded: can reduce cyst growth even in the presence of forskolin”. The “cyst growth / cyst area” value ([1]; monitored for 1 week) was “reduced cyst growth in the presence of forskolin” and the “cyst growth / cyst area” value ([1]; monitored for 72 hrs) was “reduced cyst growth in the presence of forskolin”.
